From patent US20260242320A1, “USE OF CANNABIDIOL DERIVATIVE IN PREPARATION OF MEDICAMENT” (priority 2023, published 2026)

Assays:
[1] = Respiratory rate determination; type: in vivo, mice; settings: CIAC001 20 mg/kg i.p.; THC 10 mg/kg i.p.
Protocol: Mice were intraperitoneally injected with 20 mg/kg CIAC001 or 10 mg/kg THC once daily. After 1 h, the mice were anesthetized with isoflurane by a small animal anesthesia machine (R500IE, RWD Life Science Co) on day 2 and day 5. The respiratory rate of mice was recorded three times within 20 s. The weights of mice were recorded every day.

[2] = Y-maze test of short-term memory; type: in vivo, mice; settings: CIAC001 20 mg/kg i.p.; THC 10 mg/kg i.p.
Protocol: Mice were tested for short-term memory using a Y-maze task. Briefly, mice were placed into the Y-maze for 10 min once daily to habituate the apparatus for two consecutive days. After daily habituation, the mice were then treated with CIAC001 (20 mg/kg) or THC (10 mg/kg). On the 3rd day, mice were pretreated with CIAC001 or THC 45 min before the Y-maze test. Next, the “new arm” was blocked, and mice had 5 min to freely explore two arms (the “start arm” and the “old arm”, FIG. 8F). Mice were then removed from the Y-maze and placed into the cages for 2 min. During the test phase, mice were allowed to freely explore all three arms for 2 min, and the time spent in each arm was recorded and analyzed using the Noldus analyzing software. To eliminate olfactory interference, the Y-maze was wiped off with 70% alcohol after each test.

**Q.** For `CCCCCc1cc(O)c2c(c1)OC(C)(C)[C@@H]1CCC(C)=C[C@@H]21` [THC, reference compound], which respiratory rate [1] is on record?
**A.** Its respiratory rate is “Respiratory depression was found”.

**Q.** What about the “time spent on the new arm (Y maze)” value [2] of the same molecule?
**A.** Its value is “spent significantly less time on the new arm”.
